Experimental data from patent US12252492B2, “Substituted fused pyrrolo-diazepinones and uses thereof” (Northwestern University, priority 2018, dated 2025).

Assays:
Type in all cases: cell-based, human
M14 = experiment: NCI60 one-dose screen, M14; details: M14 (Melanoma); NCI 60 one-dose, 10^-5 M
Method: (§1) Anti-cancer activity screening of all compounds was performed by the NCI Developmental Therapeutics Program (DTP) through their NCI60 screening initiative. Assay details can be found at the website dtp.cancer.gov/discovery_development/nci-60/methodology.htm. Information from this website is reproduced here for convenience.
(§2) As of early 2007 all compounds submitted to the NCI 60 Cell screen are tested initially at a single high dose (10^-5 M) in the full NCI 60 cell panel. Only compounds which satisfy pre-determined threshold inhibition criteria in a minimum number of cell lines will progress to the full 5-dose assay. The threshold inhibition criteria for progression to the 5-dose screen was selected to efficiently capture compounds with anti-proliferative activity based on careful analysis of historical DTP screening data. The threshold criteria may be updated as additional data becomes available.
(§3) The One-dose data will be reported as a mean graph of the percent growth of treated cells and will be similar in appearance to mean graphs from the 5-dose assay. […]
(§4) Following drug addition, the plates are incubated for an additional 48 h at 37° C., 5% CO2, 95% air, and 100% relative humidity. […] Bound stain is subsequently solubilized with 10 mM trizma base, and the absorbance is read on an automated plate reader at a wavelength of 515 nm. […]

SF-268 = experiment: NCI60 one-dose screen, SF-268; details: SF-268 (CNS Cancer); NCI 60 one-dose, 10^-5 M
Method: as §1, §2, §3, §4

MDA-MB-435 = experiment: NCI60 one-dose screen, MDA-MB-435; details: MDA-MB-435 (Melanoma); NCI 60 one-dose, 10^-5 M
Method: as §1, §2, §3, §4

HL-60(TB) = experiment: NCI60 one-dose screen, HL-60(TB); details: HL-60(TB) (Leukemia); NCI 60 one-dose, 10^-5 M
Method: as §1, §2, §3, §4

NCI-H226 = experiment: NCI60 one-dose screen, NCI-H226; details: NCI-H226 (Non-Small Cell Lung Cancer); NCI 60 one-dose, 10^-5 M
Method: as §1, §2, §3, §4

SNB-75 = experiment: NCI60 one-dose screen, SNB-75; details: SNB-75 (CNS Cancer); NCI 60 one-dose, 10^-5 M
Method: as §1, §2, §3, §4

SMILES	Growth Percent (M14) [%]	Growth Percent (SF-268) [%]	Growth Percent (MDA-MB-435) [%]	Growth Percent (HL-60(TB)) [%]	Growth Percent (NCI-H226) [%]	Growth Percent (SNB-75) [%]
CC(=O)N1c2ccccc2NC2=C(C(=O)N(C)C2(C)C)C1c1ccccc1 (stereo not drawn) [NUCC-60872]	21.48	42.99	−67.83	7.50	91.06	−3.29
CC(=O)N1c2ccccc2NC2=C(C(=O)N(Cc3ccccc3)C2(C)C)C1c1ccco1 (stereo not drawn) [NUCC-608455]	−13.58	42.68	−56.24	9.63	65.66	16.83
